# In patent US12396459B2, “Synergistically effective herbicide composition comprising pyridate and at least one defined 4-HPPD inhibitor” (BELCHIM CROP PROTECTION NV, priority 2018, dated 2025):
# Assays:
# Type in all cases: in vivo
# [1] = tested on: Geranium dissectum; experiment: Examples 6-8 herbicidal effect: GERDI; settings: 7 DAA
# [2] = tested on: Digitaria sanguinalis; experiment: Field trial post-emergence in maize: DIGSA; settings: g a.c./ha: PYR 300, MES 100, PYR + MES 300 + 90
# Description: (§1) Herbicidal activity of herbicide compositions according to the first aspect of the present invention with regard to different types of unwanted vegetation was determined during trials performed on test fields (field trials). Individual compositions comprising pyridate and individual compositions comprising a defined 4-HPPD inhibitor are compared with a herbicide composition according to the invention comprising both pyridate and a defined 4-HPPD inhibitor. The expected activity of the combination of the active compounds pyridate and a defined 4-HPPD inhibitor is calculated according to above mentioned calculation method by Colby, in order to evaluate a synergistic effect between pyridate and a defined 4-HPPD inhibitor.
# (§2) Herbicidal activity was determined by applying herbicide compositions on emerged unwanted vegetation on fields where maize was cultivated. Pyridate and a defined 4-HPPD inhibitor were applied as a tank mixture by mixing these active compounds prior to use in a spray tank. The corresponding mixture was in the form of a spray liquor. Besides, spray liquors of individual compositions comprising pyridate and of individual compositions comprising a defined 4-HPPD inhibitor were used. Test plants of unwanted vegetation with a growth stage corresponding to BBCH 10-18 (according to the extended BBCH-scale) were sprayed with the active compound preparations such that particular desired amounts of active compounds are applied per unit area. Spray liquor was diluted with water to arrive at an application volume of 50 to 450 L/ha. At a specified number of days after application (DAA), the degree of damage to the unwanted vegetation is rated in % of plants of unwanted vegetation that were killed, which was assessed by visually controlling the plants.
# [3] = tested on: Kickxia elatine; experiment: Field trial post-emergence in maize: KICEL
# Description: as §1, §2
# (§3) Example 1 concerns a herbicide composition comprising a combination of pyridate and mesotrione, which was applied post-emergence on unwanted vegetation on a field where maize was cultivated, according to the test conditions mentioned above.
# [4] = tested on: Setaria viridis; experiment: Field trial post-emergence in maize: SETVI
# Description: as §1, §2, §3
# [5] = tested on: Mercurialis annua; experiment: Field trial post-emergence in maize: MERAN
# Description: as §1, §2, §3
# [6] = tested on: Bassia scoparia; experiment: Field trial post-emergence in maize: KCHSC; settings: 13-14 DAA; # = 2; g a.c./ha: PYR 450, TEM 38, PYR + TEM 450 + 38
# Description: as §1
# (§4) Herbicidal activity was determined by applying herbicide compositions on emerged unwanted vegetation on fields where maize was cultivated. Pyridate and a defined 4-HPPD inhibitor were applied as a tank mixture by mixing these active compounds prior to use in a spray tank. The corresponding mixture was in the form of a spray liquor. […] At a specified number of days after application (DAA), the degree of damage to the unwanted vegetation is rated in % of plants of unwanted vegetation that were killed, which was assessed by visually controlling the plants.
# [7] = tested on: Papaver rhoeas; experiment: Field trial post-emergence in maize: PAPRH; settings: # = 1, g a.c./ha: PYR 300, MES 100, PYR + MES 300 + 90
# Description: as §1, §2
# [8] = tested on: Sinapis arvensis; experiment: Field trial post-emergence in maize: SINAR; settings: 13-14 DAA; # = 1; g a.c./ha: PYR 450, TOP 12.4, PYR + TOP 450 + 12.4
# Description: as §1, §4
# [9] = tested on: Hibiscus ternatus; experiment: Field trial post-emergence in maize: HIBTR; settings: 7-14 DAA; # = 2; g a.c./ha: PYR 300, MES 100, PYR + MES 300 + 90
# Description: as §1, §4
# [10] = tested on: Atriplex patula; experiment: Field trial post-emergence in maize: ATXPA
# Description: as §1, §2, §3
# [11] = tested on: Brassica napus (winter); experiment: Field trial post-emergence in maize: BRSNW; settings: # = 1, g a.c./ha: PYR 300, MES 100, PYR + MES 300 + 90
# Description: as §1, §2
# [12] = tested on: Setaria verticillata; experiment: Field trial post-emergence in maize: SETVE
# Description: as §1, §2, §3
# [13] = tested on: Poa annua; experiment: Examples 6-8 herbicidal effect: POAAN; settings: 7 DAA
# [14] = tested on: Brassica rapa Canola cultivars; experiment: Field trial post-emergence in maize: BRSRC; settings: 13-14 DAA, # = 1
# Description: as §1, §2
# [15] = tested on: Persicaria maculosa; experiment: Field trial post-emergence in maize: POLPE; settings: for herbicidal effect (h.e.): g a.c./ha: PYR 300, MES 100, PYR + MES 300 + 90
# Description: as §1, §2
# [16] = tested on: Xanthium spinosum; experiment: Field trial post-emergence in maize: XANSP; settings: 7-14 DAA; # = 3; g a.c./ha: PYR 300, MES 100, PYR + MES 300 + 90
# Description: as §1, §4
# [17] = tested on: Matricaria chamomilla; experiment: Field trial post-emergence in maize: MATCH
# Description: as §1, §2, §3
# [18] = tested on: Lamium amplexicaule; experiment: Example 6 herbicidal effect: LAMAM; settings: 7 DAA
# [19] = tested on: Chenopodium album; experiment: Field trial post-emergence in maize: CHEAL; settings: 13-14 DAA, # = 1
# Description: as §1, §2
# [20] = g a.c./ha: PYR 10, TEM 22, PYR + TEM 10 + 100
# [21] = g a.c./ha: PYR 300, PYR + MES 300 + 80
# [22] = g a.c./ha: PYR 300, SCT 300, PYR + SCT 300 + 300
# [23] = g a.c./ha: PYR 300, TEM 100, PYR + TEM 300 + 100
# [24] = g a.c./ha: PYR 450, SCT 450, PYR + SCT 300 + 450
# [25] = g a.c./ha: PYR 600, PYR + SCT 600 + 300
# [26] = g a.c./ha: PYR 900, TEM 44, PYR + TEM 900 + 44
# [27] = g a.c./ha: PYR 450, TOP 12.4, PYR + TOP 450 + 12.4
smiles,measurement,setting,value
"CCCCCCCCSC(=O)Oc1cc(Cl)nnc1-c1ccccc1 [PYR, (6-chloro-3-phenylpyridazin-4-yl) octylsulfanylformate]",herbicidal effect (h.e.),[1]; [20],0%
same,herbicidal effect (h.e.),[1]; [21],5%
same,herbicidal effect (h.e.),[1]; [22],15%
same,herbicidal effect (h.e.),[1]; [23],5%
same,herbicidal effect (h.e.),[1]; [24],30%
same,herbicidal effect (h.e.),[1]; [25],15%
same,herbicidal effect (h.e.),[1]; [26],10%
same,herbicidal effect (h.e.),"[2]; 7-14 DAA, # = 2",30%
same,herbicidal effect (h.e.),"[2]; 18-28 DAA, # = 2",24%
same,herbicidal effect (h.e.),"[2]; 31-48 DAA, # = 1",48%
same,PYR h.e.,[3]; KICEL 14-20 DAA 300 g a.c./ha,0%
same,PYR h.e.,[3]; KICEL 14-20 DAA 600 g a.c./ha,0%
same,PYR h.e.,[3]; KICEL 14-20 DAA 900 g a.c./ha,0%
same,PYR h.e.,[3]; KICEL 24-31 DAA 300 g a.c./ha,0%
same,PYR h.e.,[3]; KICEL 24-31 DAA 600 g a.c./ha,0%
same,PYR h.e.,[3]; KICEL 24-31 DAA 900 g a.c./ha,0%
same,PYR h.e.,[4]; SETVI 14-20 DAA 300 g a.c./ha,10%
same,PYR h.e.,[4]; SETVI 14-20 DAA 600 g a.c./ha,20%
same,PYR h.e.,[4]; SETVI 14-20 DAA 900 g a.c./ha,25%
same,PYR h.e.,[4]; SETVI 24-31 DAA 300 g a.c./ha,0%
same,PYR h.e.,[4]; SETVI 24-31 DAA 600 g a.c./ha,0%
same,PYR h.e.,[4]; SETVI 24-31 DAA 900 g a.c./ha,0%
same,PYR h.e.,[5]; MERAN 14-20 DAA 300 g a.c./ha,48%
same,PYR h.e.,[5]; MERAN 14-20 DAA 600 g a.c./ha,78%
same,PYR h.e.,[5]; MERAN 24-31 DAA 300 g a.c./ha,10%
same,PYR h.e.,[5]; MERAN 24-31 DAA 600 g a.c./ha,33%
same,PYR h.e.,[5]; MERAN 24-31 DAA 900 g a.c./ha,80%
same,herbicidal effect (h.e.),[6],66%
same,herbicidal effect (h.e.),[7]; 18-28 DAA,3%
same,herbicidal effect (h.e.),[7]; 31-48 DAA,3%
same,herbicidal effect (h.e.),[8],57%
same,herbicidal effect (h.e.),[9],36%
same,PYR h.e.,[10]; ATXPA 24-31 DAA 300 g a.c./ha,43%
same,PYR h.e.,[10]; ATXPA 24-31 DAA 600 g a.c./ha,49%
same,herbicidal effect (h.e.),[11]; 7-14 DAA,5%
same,herbicidal effect (h.e.),[11]; 18-28 DAA,5%
same,PYR h.e.,[12]; SETVE 14-20 DAA 300 g a.c./ha,29%
same,PYR h.e.,[12]; SETVE 14-20 DAA 600 g a.c./ha,47%
same,PYR h.e.,[12]; SETVE 14-20 DAA 900 g a.c./ha,75%
same,PYR h.e.,[12]; SETVE 24-31 DAA 300 g a.c./ha,29%
same,PYR h.e.,[12]; SETVE 24-31 DAA 600 g a.c./ha,33%
same,PYR h.e.,[12]; SETVE 24-31 DAA 900 g a.c./ha,60%
same,herbicidal effect (h.e.),[13]; [20],0%
same,herbicidal effect (h.e.),[13]; [21],3%
same,herbicidal effect (h.e.),[13]; [22],2%
same,herbicidal effect (h.e.),[13]; [23],10%
same,herbicidal effect (h.e.),[13]; [24],2%
same,herbicidal effect (h.e.),[13]; [25],0%
same,herbicidal effect (h.e.),[13]; [26],0%
same,herbicidal effect (h.e.),"[14]; g a.c./ha: PYR 450, MES 144, PYR + MES 450 + 144",48%
same,herbicidal effect (h.e.),[14]; [27],48%
same,herbicidal effect (h.e.),"[15]; 7-14 DAA, # = 3",42%
same,herbicidal effect (h.e.),"[15]; 31-48 DAA, # = 4",32%
same,PYR h.e.,[15]; POLPE 14-20 DAA 300 g a.c./ha,15%
same,PYR h.e.,[15]; POLPE 14-20 DAA 600 g a.c./ha,23%
same,PYR h.e.,[15]; POLPE 14-20 DAA 900 g a.c./ha,28%
same,PYR h.e.,[15]; POLPE 24-31 DAA 300 g a.c./ha,17%
same,PYR h.e.,[15]; POLPE 24-31 DAA 600 g a.c./ha,33%
same,PYR h.e.,[15]; POLPE 24-31 DAA 900 g a.c./ha,32%
same,herbicidal effect (h.e.),[16],5%
same,PYR h.e.,[17]; MATCH 14-20 DAA 300 g a.c./ha,25%
same,PYR h.e.,[17]; MATCH 14-20 DAA 600 g a.c./ha,45%
same,PYR h.e.,[17]; MATCH 14-20 DAA 900 g a.c./ha,61%
same,PYR h.e.,[17]; MATCH 24-31 DAA 300 g a.c./ha,5%
same,PYR h.e.,[17]; MATCH 24-31 DAA 600 g a.c./ha,26%
same,PYR h.e.,[17]; MATCH 24-31 DAA 900 g a.c./ha,39%
same,herbicidal effect (h.e.),[18]; [20],0%
same,herbicidal effect (h.e.),[18]; [23],5%
same,herbicidal effect (h.e.),[18]; [26],10%
same,herbicidal effect (h.e.),"[19]; g a.c./ha: PYR 450, TEM 38, PYR + TEM 450 + 38",49%
same,herbicidal effect (h.e.),[19]; [27],35%
